From patent EP4792811A1, “S1PR4 REGULATOR COMPOUND FOR MUSCLE DISEASE TREATMENT AND APPLICATION THEREOF” (Shengyuan Zetong (Shanghai) Pharmaceutical Co., Ltd, priority 2023, dated 2025)
Changes are numbered by the printed parent chain.

Columns and labels:
[1] = system: Duchenne muscular dystrophy model mice; assay: In vivo pharmacodynamic test in Duchenne muscular dystrophy model mice (Compound 30); details: 1 mg/kg intragastric once daily
Protocol: Experimental Animals: A total of 35 Duchenne muscular dystrophy model mice were divided into 6 groups as shown below.
Intragastric administration was initiated from Day 0. Body weight was measured daily during the experiment to adjust the drug dosage. Grip strength tests were performed every 2 days to observe changes in the mice's grip strength until the experiment concluded on Day 21. Changes in the limb grip strength, serum creatine kinase content, and muscle fibrosis/inflammation in the mice were detected as indicators for evaluating drug efficacy.
(§1) The mouse was placed horizontally on the grip test board. The mouse's tail was held and pulled gently in the opposite direction without using excessive force. The tail was gradually pulled until the mouse released the grip force sensor. The maximum value recorded by the grip force sensor is the grip strength. The test was repeated for 3 times and the average value was taken.
(§2) After the completion of administration, blood was collected via the orbital sinus, allowed to stand for 30 minutes, centrifuged at 3000 rpm at 4°C for 15 minutes, and serum was extracted, stored frozen at -20°C, and detected in accordance with the kit instructions.
(§3) After the experiment, the tibialis anterior, extensor digitorum longus, and diaphragm of the mice were harvested, fixed, sectioned, and subjected to HE staining and Sirius Red staining to observe the degree of muscle fibrosis. The slice was subjected to immunofluorescence staining with F4/80 to observe the level of muscle inflammation.

S1PR4 = target: T1, S1PR4 (Homo sapiens, UniProt O95977); assay: S1PR4 internalization function test in S1PR4-293T cells; type: cell-based; details: 1 µM, 37 °C, 1.5 hours; detected immediately, or at 5 hours or 20 hours after treatment
T1 construct: expressed in transfected cells; host or cells: 293T
T1 sequence (O95977 1-384): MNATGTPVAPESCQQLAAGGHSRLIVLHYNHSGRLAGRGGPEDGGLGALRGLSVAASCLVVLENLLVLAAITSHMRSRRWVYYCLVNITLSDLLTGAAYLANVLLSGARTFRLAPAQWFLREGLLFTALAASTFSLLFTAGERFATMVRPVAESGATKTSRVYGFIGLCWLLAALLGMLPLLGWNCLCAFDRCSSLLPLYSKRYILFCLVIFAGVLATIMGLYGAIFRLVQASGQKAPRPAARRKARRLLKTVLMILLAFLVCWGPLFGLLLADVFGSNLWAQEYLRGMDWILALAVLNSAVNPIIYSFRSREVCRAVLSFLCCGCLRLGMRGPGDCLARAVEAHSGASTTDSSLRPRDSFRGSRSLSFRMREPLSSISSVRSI
Protocol: Therefore, the recovery degree of S1PR4 after internalization caused by Compound 30 was evaluated, and the recovery effect following receptor internalization caused by Compound 30 was assessed in cells with high S1PR4 expression.

hS1P1 = target: T2, hS1P1 (Homo sapiens, UniProt P21453); assay: Tango β-arrestin recruitment assay, Tango-hS1P1-CHO; type: cell-based; details: final concentration 45 µM, 9 serial dilutions at 5-fold intervals; 20 h drug treatment; luciferase readout
T2 construct: expressed in transfected cells; host or cells: CHO-K1
T2 sequence (P21453 whole entry): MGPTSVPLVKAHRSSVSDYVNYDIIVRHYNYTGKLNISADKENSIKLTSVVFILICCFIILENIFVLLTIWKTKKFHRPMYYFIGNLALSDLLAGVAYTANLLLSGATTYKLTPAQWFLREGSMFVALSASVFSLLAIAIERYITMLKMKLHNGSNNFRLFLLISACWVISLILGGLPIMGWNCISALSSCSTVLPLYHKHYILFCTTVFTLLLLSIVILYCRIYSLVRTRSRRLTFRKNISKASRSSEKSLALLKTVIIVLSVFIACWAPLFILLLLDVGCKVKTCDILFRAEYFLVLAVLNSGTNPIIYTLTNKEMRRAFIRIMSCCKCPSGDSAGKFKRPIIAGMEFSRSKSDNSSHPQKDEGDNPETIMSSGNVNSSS
Description: (§4) The Tango assay detects ligand-dependent GPCR activity through the interaction between β-arrestin and GPCRs. […] The NTEV fragment and the tetracycline transactivator (tTA), an artificial transcription factor, are fused at the C-terminus of the GPCR, while the CTEV fragment is fused to human β-arrestin 2. To enhance the stability of the interaction between GPCR and β-arrestin, a short sequence from the C-terminus of the human arginine vasopressin receptor 2 (V2 tail) is inserted between the GPCR and NTEV. The V2 tail contains multiple GRK phosphorylation sites, which strengthen β-arrestin binding upon phosphorylation. The CTEV fragment carries the stabile point mutation S219P and is truncated at residue 221 to remove the autoinhibitory C-terminal tail. Meanwhile, β-arrestin 2 is truncated to lack the entire C-terminal tail (residues 383-410 deleted). This truncation confers robust stimulus-dependent receptor desensitization, thereby improving detection sensitivity compared with wild-type β-arrestin 2. The UAS reporter construct consists of upstream activating sequence (UAS) elements, a minimal CMV promoter, and a tTA-dependent luciferase reporter gene. Therefore, constructing Tango cells requires the co-transfection of the above three plasmids into host cells. Upon GPCR activation and β-arrestin recruitment, the TEV enzyme at the β-arrestin terminus cleaves tTA from the GPCR C-terminus. The released tTA initiates tTA-dependent luciferase transcription, and compound activity is ultimately determined by measuring luminescence intensity.
(§5) • 1) Tango cell line from was digested from the culture dish respectively. After cell counting, the cells were plated at a density of 10,000 cells per well with […] into a white opaque 96-well plate (add 60 µL D'Hanks to the surrounding wells), and incubated overnight (20 h) in a 5% CO2 incubator at 37°C. The cell density will reach approximately 90% the next day. • 2) After 20 h, 30 µL of serially diluted compound solution was added to each well. The control group was supplemented with 30 µL F12K complete medium. Each group had three replicate wells. • 3) Samples were collected after 20 h of drug treatment.
(§6) (All compounds were tested at a final concentration of 45 µM, with 9 serial dilutions at 5-fold intervals. 1 µM BAF-312 was used as the positive control for S1PR1, and 25 µM BAF-312 was used as the positive control for S1PR4.)
^a β-arrestin recruitment activity based on Tango-S1PR1-CHO-K1 and Tango-S1PR4-CHO-K1 cells, expressed as mean EC50 values ± SD. ^b FLIPR assays were performed using S1PR2-CHO and S1PR5-CHO cell lines, expressed as mean EC50 values ± SD. ^c β-arrestin recruitment activity based on PathHunter CHO-K1-S1PR3 cells, expressed as mean EC50 values ± SD. Data are the mean of at least two independent determinations, reported as mean ± SD (standard deviation).

hS1P4-R-79C = target: T3, hS1P4-R-79C (Homo sapiens, UniProt O95977, R79C); assay: Tango β-arrestin recruitment assay, Tango-hS1P4-R-79C-CHO; type: cell-based; details: final concentration 45 µM, 9 serial dilutions at 5-fold intervals; 20 h drug treatment; luciferase readout
T3 construct: expressed in transfected cells; host or cells: CHO
T3 sequence (O95977 1-384 R79C): T1 sequence (O95977 1-384) with R79C
Description: as §4, §5, §6

[2] = system: S1PR4-R82C/NDUFA10-R217W double-mutant mice; assay: In vivo efficacy in S1PR4-R82C/NDUFA10-R217W double-mutant muscular dystrophy mice; details: 1 mg/kg intragastric once daily
Protocol: Experimental Animals: A total of 34 S1PR4-R82C/NDUFA10-R217W mice were divided into 6 groups as shown below.
Intragastric administration was initiated on Day 0, and body weight was measured daily during the experiment to adjust the drug dosage. Grip strength was measured at the beginning and end of the experiment to observe motor changes in mice. Changes in the limb grip strength, serum creatine kinase content, and muscle fibrosis/inflammation in mice were detected as indicators for evaluating drug efficacy.
as §1, §2, §3

- S1PR4 internalization (expression of S1PR4 receptor on the cell surface) (S1PR4): cannot induce S1PR4 internalization
- EC50 (hS1P1): 1.04 nM
- EC50 (hS1P4-R-79C): 157 nM
SMILES: CCc1cc(/C(C)=N/OCc2ccc(C3CCCCC3)c(C(F)(F)F)c2)ccc1CN1CC(C(=O)O)C1 [BAF312, reference compound]
- collagen deposition (collagen area ratio) [1]: no difference
- macrophage content (F4/80 immunofluorescence, muscle inflammation) [1]: no improvement
- number of centrally nucleated fibers (HE staining) [1]: significantly reduced
- serum creatine kinase level ([1]; after treatment): no such effect
- body weight growth trend ([1]; compared with the model group): no difference
- collagen deposition (collagen area ratio) ([2]; after administration): significantly reduced collagen deposition
- serum creatine kinase level ([2]; after treatment): significantly reduced
- body weight gain trend ([2]; compared with the model group): no difference
